Laboratory results published in patent US11013235B2 (priority 2015, dated 2021).
Read-outs that look alike come from different tables or passages of the source.

Assays:
Assay type in all cases: in vivo
[1] = system: Candidatus 'Liberibacter asiaticus'; conditions: spraying every 15 days, 12 months after treatment, Citrus sinensis with HLB
[2] = system: Phytophthora parasitica; assay: Control of Phytophthora parasitica disease in tobacco (Pp-Nt); conditions: 1 μM spraying every 24 hours for one week, water control 91
[3] = system: Rhizoctonia solani; assay: Control of Rhizoctonia solani disease in tobacco (Rs-Nt); conditions: 1 μM spraying every 24 hours for one week, water control 87
[4] = system: Nocardia sp; assay: Control of Nocardia sp disease in tobacco (N-Nt); conditions: 1 μM spraying every 24 hours for one week, water control 58
Summary of the method: (§1)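 Fifty pre-inoculated plants per treatment received 1 μM compound sprays daily for a week; water-sprayed plants served as controls. Disease scored as plant mortality (Nocardia), share of leaves with symptoms (A. solani) or lesion diameter (B. cinerea).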

[5] = system: Rhizoctonia solani; assay: Control of Rhizoctonia solani disease in tomato (Rs-SI); conditions: 1 μM spraying every 24 hours for one week, water control 96
[6] = system: Alternaria solani; assay: Control of Alternaria solani disease in tomato (As-SI); conditions: 1 μM spraying every 24 hours for one week, water control 68
Summary of the method: as §1

[7] = system: Botrytis cinerea; assay: Control of Botrytis cinerea disease in Arabidopsis (Bc-At); conditions: 1 μM spraying every 24 hours for one week, water control 8.7
Summary of the method: as §1

[8] = system: Botrytis cinerea; assay: Control of Botrytis cinerea disease in tobacco (Bc-Nt); conditions: 1 μM spraying every 24 hours for one week, water control 6.7
Summary of the method: as §1

[9] = system: Botrytis cinerea; assay: Control of Botrytis cinerea disease in tomato (Bc-SI); conditions: 1 μM spraying every 24 hours for one week, water control 7.4
Summary of the method: as §1

[10] = system: Radopholus similis; assay: Nematode control, nodules per plant: Radopholus similis; conditions: 1 μM foliar application every 5 days, evaluation 35 days after, control 45
Summary of the method: (§2)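 Read-out: nodule count per plant at final evaluation 35 days after start. Foliar spray of 1 μM compound (ethanol stock diluted in water) repeated every 5 days, ten plants per treatment.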

[11] = system: Meloidogyne incognita; assay: Nematode control, nodules per plant: Meloidogyne incognita; conditions: 1 μM foliar application every 5 days, evaluation 35 days after, control 34
Summary of the method: as §2

[12] = system: Pratylenchus coffeae; assay: Nematode control, nodules per plant: Pratylenchus coffeae; conditions: 1 μM foliar application every 5 days, evaluation 35 days after, control 42
Summary of the method: as §2

| SMILES | Titers of the bacterium ([1]; 0.001 μM) | Titers of the bacterium ([1]; 0.01 μM) | Titers of the bacterium ([1]; 1 μM) | Titers of the bacterium ([1]; 5 μM) | Titers of the bacterium ([1]; 10 μM) | Pp-Nt: percentage of mortality [2] | Rs-Nt: percentage of mortality [3] | N-Nt: percentage of mortality [4] | Rs-SI: percentage of mortality [5] | As-SI: percentage of leaves with the disease symptoms [6] | Bc-At: mean of the diameter of the lesion [7] | Bc-Nt: mean of the diameter of the lesion [8] | Bc-SI: mean of the diameter of the lesion [9] | Rs: number of nodules per plant [10] | Mi: number of nodules per plant [11] | Pc: number of nodules per plant [12] |
| --- | --- | --- | --- | --- | --- | --- | --- | --- | --- | --- | --- | --- | --- | --- | --- | --- |
| O=C(c1ccc(OC2CCN(CC(O)CO)CC2)cc1)N1CCC(c2ccccc2)C1 (stereo not shown) [IVC, 3-(4-{4-[(3-phenylpyrrolidin-1-yl)carbonyl]phenoxy}piperidin-1-yl)propane-1,2-diol] | 123 copies per reaction | 4 copies per reaction | 0 copies per reaction | 23 copies per reaction | 3541 copies per reaction | 1% | 2% | 1% | 3% | 1% | 1.2 mm | 0.3 mm | 0.8 mm | 14 | 2 | 13 |
| CC(O)C(O)CN1CCC(Oc2ccc(C(=O)N3CCC(c4ccccc4)C3)cc2)CC1 (stereo not shown) [IVD, 1-(4-{4-[(3-phenylpyrrolidin-1-yl)carbonyl]phenoxy}piperidin-1-yl)butane-2,3-diol] | 587 copies per reaction | 0 copies per reaction | 0 copies per reaction | 87 copies per reaction | 2368 copies per reaction | 2% | 3% | 1% | 2% | 2% | 1.1 mm | 2.0 mm | 1.6 mm | 2 | 3 | 15 |
| O=C(c1ccc(OC2CCN(CC(O)CO)CC2)cc1)N1CCC(C2CCCCC2)C1 (stereo not shown) [IVE] | 985 copies per reaction | 0 copies per reaction | 0 copies per reaction | 98 copies per reaction | 9845 copies per reaction | 1% | 4% | 2% | 2% | 3% | 0.5 mm | 0.9 mm | 0.8 mm | 14 | 4 | 2 |
| CC(O)C(O)CN1CCC(Oc2ccc(C(=O)N3CCC(C4CCCCC4)C3)cc2)CC1 (stereo not shown) [IVF, 1-(4-{4-[(3-cyclohexylpyrrolidin-1-yl)carbonyl]phenoxy}piperidin-1-yl)butane-2,3-diol] | 657 copies per reaction | 0 copies per reaction | 0 copies per reaction | 67 copies per reaction | 8654 copies per reaction | 0% | 0% | 1% | 2% | 8% | 1.5 mm | 1.5 mm | 2.5 mm | 0 | 0 | 17 |
| O=C(c1ccc(OC2CCN(CC(O)CO)CC2)cc1)N1CCC(C2CCCC2)C1 (stereo not shown) [IVG, 3-(4-{4-[(3-cyclopentylpyrrolidin-1-yl)carbonyl]phenoxy}piperidin-1-yl)propane-1,2-diol] | 658 copies per reaction | 0 copies per reaction | 0 copies per reaction | 68 copies per reaction | 4562 copies per reaction | 0% | 0% | 0% | 0% | 7% | 2.4 mm | 1.5 mm | 0.8 mm | 0 | 0 | 0 |
| CC(O)C(O)CN1CCC(Oc2ccc(C(=O)N3CCC(C4CCCC4)C3)cc2)CC1 (stereo not shown) [IVH, 1-(4-{4-[(3-cyclopentylpyrrolidin-1-yl)carbonyl]phenoxy}piperidin-1-yl)butane-2,3-diol] | 756 copies per reaction | 0 copies per reaction | 0 copies per reaction | 76 copies per reaction | 1351 copies per reaction | 0% | 0% | 0% | 1% | 5% | 0.7 mm | 0.9 mm | 1.2 mm | 0 | 0 | 0 |
| O=C(c1ccc(OC2CCN(CC(O)CO)CC2)cc1)N1CCCC1 (stereo not shown) [IVI, 3-(4-{4-[(pyrrolidin-1-yl)carbonyl]phenoxy}piperidin-1-yl)propane-1,2-diol] | 456 copies per reaction | 4 copies per reaction | 2 copies per reaction | 56 copies per reaction | 2547 copies per reaction | 3% | 0% | 0% | 1% | 7% | 1.2 mm | 0.3 mm | 0.8 mm | 3 | 0 | 0 |
